Assay: Binding affinity against Sigma receptor type 1 was determined by the displacement of [3H]pentazocine radioligand

Row | SMILES | Ki [nM]
1 | Fc1ccc(N(CCCN2CCN(Cc3ccccc3)CC2)c2ccc(F)cc2)cc1 [N-(3-(4-benzylpiperazin-1-yl)propyl)-4-fluoro-N-(4-fluorophenyl)benzenamine] | 13.1
2 | C[C@@H]1CN(CCCn2c3ccccc3c3cc(N)ccc32)C[C@@H](C)N1 [9-[3-(3,5-Dimethyl-piperazin-1-yl)-propyl]-9H-carbazol-3-ylamine] | 5720
3 | C[C@@H]1CN(CCCn2c3ccccc3c3cc([N+](=O)[O-])ccc32)C[C@@H](C)N1 [9-[3-(3,5-Dimethyl-piperazin-1-yl)-propyl]-3-nitro-9H-carbazole] | 596
4 | C[C@@H]1CN(CCCN(c2ccccc2)c2ccccc2)C[C@@H](C)N1CCc1ccc(Cl)c(Cl)c1 [(3-{(3R,5R)-4-[2-(3,4-Dichloro-phenyl)-ethyl]-3,5-dimethyl-piperazin-1-yl}-propyl)-diphenyl-amine] | 29.6
5 | C[C@@H]1CN(CCCn2c3ccccc3c3ccccc32)C[C@@H](C)N1C [9-[3-(3,4,5-Trimethyl-piperazin-1-yl)-propyl]-9H-carbazole] | 552
6 | C[C@@H]1CN(CCCn2c3ccccc3c3ccccc32)C[C@@H](C)N1CCCc1ccccc1 [9-{3-[3,5-Dimethyl-4-(3-phenyl-propyl)-piperazin-1-yl]-propyl}-9H-carbazole] | 104
7 | C[C@@H]1CN(CCCn2c3ccc(Br)cc3c3cc(Br)ccc32)C[C@@H](C)N1 [3,6-Dibromo-9-[3-(3,5-dimethyl-piperazin-1-yl)-propyl]-9H-carbazole] | 4420
8 | Fc1ccc(N(CCCN2CCN(CCCc3ccccc3)CC2)c2ccc(F)cc2)cc1 [Bis-(4-fluoro-phenyl)-{3-[4-(3-phenyl-propyl)-piperazin-1-yl]-propyl}-amine] | 66.2
9 | C[C@@H]1CN(CCCN(c2ccc(F)cc2)c2ccc(F)cc2)C[C@@H](C)N1CCc1ccc(Cl)c(Cl)c1 [(3-{(3R,5R)-4-[2-(3,4-Dichloro-phenyl)-ethyl]-3,5-dimethyl-piperazin-1-yl}-propyl)-bis-(4-fluoro-phenyl)-amine] | 32.5
10 | Fc1ccc(N(CCCN2CCNCC2)c2ccc(F)cc2)cc1 [Bis-(4-fluoro-phenyl)-(3-piperazin-1-yl-propyl)-amine] | 1390

Results, then the compound that gave them:

Row | Ki [nM] | SMILES
11 | 97.2 | C[C@@H]1CN(CCCN(c2ccccc2)c2ccccc2)C[C@@H](C)N1CCCc1ccccc1 [{3-[3,5-Dimethyl-4-(3-phenyl-propyl)-piperazin-1-yl]-propyl}-diphenyl-amine]
12 | 138 | C[C@@H]1CN(CCCN(c2ccccc2)c2ccccc2)C[C@@H](C)N1 [[3-((3R,5R)-3,5-Dimethyl-piperazin-1-yl)-propyl]-diphenyl-amine]
13 | 11.1 | C[C@@H]1CN(CCCN(c2ccc(F)cc2)c2ccc(F)cc2)C[C@@H](C)N1CCCc1ccccc1 [{3-[3,5-Dimethyl-4-(3-phenyl-propyl)-piperazin-1-yl]-propyl}-bis-(4-fluoro-phenyl)-amine]
14 | 124 | C[C@@H]1CN(CCCN(c2ccc(F)cc2)c2ccc(F)cc2)C[C@@H](C)N1 [[3-((3R,5R)-3,5-Dimethyl-piperazin-1-yl)-propyl]-bis-(4-fluoro-phenyl)-amine]
15 | 19.5 | CCN(CC)CCOCCOC(=O)C1(c2ccccc2)CCCC1 [SMR000326757]
